{"source": "patent US20150253330A1", "about": "“PRE-SELECTION OF SUBJECTS FOR THERAPEUTIC TREATMENT WITH AN HSP90 INHIBITOR BASED ON HYPOXIC STATUS” (Synta Pharmaceuticals Corp., priority 2012, published 2015)", "key": {"[1]": {"system": "Mia-PaCa2, HPAC and PANC-1 cells", "assay": "Proliferation of pancreatic cancer cell lines, 24 hours (confirmed by XTT assay)", "format": "cell-based", "conditions": "p<0.001, one way ANOVA", "experimental": "Mia-PaCa2, PANC-1, HPAC and ASPC-1 cell lines (ATCC, Manassas, Va.) were cultured according to the ATCC manual. Medium was supplemented with 10% fetal bovine serum (Invitrogen Corporation, Carlsbad, Calif.), 50 units/ml penicillin, and 50 μg/ml streptomycin (Life Technologies, Inc., Frederick, Md.). Cells were incubated at 37° C. in a humidified 5% CO2 atmosphere."}, "[2]": {"system": "KRAS substrates, including BRAF and CRAF", "assay": "KRAS substrates at the molecular level in KRAS mutant NSCLC cells", "format": "cell-based"}, "MKN-45": {"system": "MKN-45", "assay": "72 hr viability by Syto60, gastric cell line", "format": "cell-based", "conditions": "Homo sapiens, Syto60 (lower), read-out: ganetespib IC50", "experimental": "(§1) Many of the oncoproteins associated with gastric cancer and Hsp90 client proteins including HER2, MET, RAS and the FGFR family. Ganetespib was evaluated for its effect on the growth of AGS (wt-p53 and mut-KRAS) and MKN45 (wt-p53, wt-KRAS, MET amplified) gastric cancer cells. Cells were treated for 72 hr and viability determined by CTG (upper) or Syto60 (lower)."}, "AGS": {"system": "AGS", "assay": "72 hr viability by Syto60, gastric cell line", "format": "cell-based", "conditions": "Homo sapiens, Syto60 (lower), read-out: ganetespib IC50", "experimental": "as §1"}, "advanced NSCLC": {"system": "advanced NSCLC", "assay": "Phase 2 clinical trial in NSCLC by KRAS, EGFR and ALK mutation status", "format": "in vivo, human", "experimental": "Patients with advanced NSCLC who failed prior treatments received 200 mg/m^2 of ganetespib as a 1-hr infusion once weekly for 3 of a 4-wk cycle in a Simon two-stage study design assessing primary endpoint of PFS rate at 16 wks. Initial cohorts were defined by mutation status: A) EGFR mutation, KRAS wild-type B) EGFR wild-type, KRAS mutation C) EGFR wild-type, KRAS wild-type (WT). If ≧2/14 patients in A, B or C were progression-free at 16 weeks, enrollment increased to 23 patients for that cohort. Tumor response was assessed every 8 weeks. Cohort D was added to include 35 additional EGFR wild-type and KRAS wild-type patients with adenocarcinoma histology. FISH analysis for ALK translocation, was performed for Cohorts C and D."}, "angiogenesis": {"system": "angiogenesis", "assay": "Egg CAM and matrigel plug angiogenesis assays", "design": "species or system chicken", "conditions": "all three models", "experimental": "The conditioned medium was collected from control and treated cells. 100 μl of conditioned medium, either control or treated, was injected into fertilized chicken eggs. Eggs were incubated at 37° C. for 15 days, then dissected and the membrane was photographed.\nIt's postulated that functional inhibition of Hsp90 by ganetespib can inhibit angiogenesis and growth in vitro and in vivo models of pancreatic cancer. PANC-1 and HPAC cell lines were treated with vehicle or G (50 nM) for 24 h and lysates were analyzed by Western blot. Egg CAM and matrigel plug assays were performed to quantify the effects of ganetespib on angiogenesis. Efficacy of ganetespib (100 mg/kg) was assessed in mice bearing HPAC and ASPC-1 xenograft.\nMia-PaCa2, PANC-1 and HPAC cells were treated with Ganetespib (50 nM) or control for 24 hours, the conditioned medium was harvested and 100 μl of conditioned or control medium was injected into fertilized chicken eggs (Avian Vaccine Service center, North Franklin, Conn.). Eggs were incubated at 37° C. for 15 days and dissected. Chorioallantoic membrane was photographed."}, "H2009 cells": {"system": "H2009 cells", "assay": "Combinatorial viability analysis, 72 hours", "format": "cell-based", "experimental": "(§2) For combinatorial analysis, cells were seeded in 96-well plates at a predetermined, optimum growth density for 24 h prior to the addition of drug or vehicle to the culture medium. Drug combinations were applied at a non-constant ratio over a range of concentrations for 72 or 96 hours. […] Cell viability was assessed by either AlamarBlue® (Invitrogen, Carlsbad, Calif.) or CellTiter-Glo® assays and normalized to vehicle controls. For each combination study, the level of growth inhibition (fraction affected) is plotted relative to vehicle control. Data are presented as one relevant combination point and the corresponding single agent data for each cell line tested."}, "H2030 cells": {"system": "H2030 cells", "assay": "Combinatorial viability analysis, 72 hours", "format": "cell-based", "experimental": "as §2"}, "A549 cells": {"system": "A549 cells", "assay": "Combinatorial viability analysis, 72 hours", "format": "cell-based", "experimental": "as §2"}, "H358 cells": {"system": "H358 cells", "assay": "Combinatorial viability analysis, 72 hours", "format": "cell-based", "experimental": "as §2"}, "solid tumors": {"system": "solid tumors", "assay": "Phase 2 study in solid tumors, twice-weekly infusion (safety, PK, response)", "format": "in vivo, human", "description": "(§3) Patients with solid tumors who had exhausted standard treatment options received ganetespib as a 1 hr infusion twice-weekly for 3 weeks (weeks) of a 28 day cycle until disease progression. Serial PK and pharmacodynamic samples were obtained during cycle 1. Safety assessments included frequency and grade of adverse events (AEs), laboratory parameters and ECG changes."}, "[3]": {"assay": "Phase 2 study in solid tumors, twice-weekly infusion (safety, PK, response)", "format": "in vivo, human", "conditions": "human, plasma, intravenous; patients, 1 hr infusion; read-out: Mean terminal half-life", "description": "as §3"}, "[4]": {"conditions": "Cohort C: EGFR wild-type, KRAS wild-type"}, "[5]": {"conditions": "ganetespib combined with pemetrexed"}, "[6]": {"conditions": "ganetespib in combination with gemcitabine"}, "[7]": {"conditions": "low nanomolar ganetespib combined with camptothecin"}}, "note": "“Also recorded” adds a separate entry of the source."}
{"molecule": "CC(C)c1cc(-c2nnc(O)n2-c2ccc3c(ccn3C)c2)c(O)cc1O", "note": "[ganetespib]", "values": [{"measurement": "Proliferation of Mia-PaCa2, HPAC and PANC-1 cells", "setting": "[1]", "value": "decreases proliferation"}, {"measurement": "Effect on KRAS substrates", "setting": "[2]", "value": "induced the destabilization of several KRAS substrates, including BRAF and CRAF"}, {"measurement": "IC50", "setting": "MKN-45", "value": 8, "unit": "nM"}, {"measurement": "IC50", "setting": "AGS", "value": 5, "unit": "nM"}, {"measurement": "Adverse events reported in ≧20% of patients", "setting": "advanced NSCLC; 200 mg/m^2 once weekly for 3 of a 4-wk cycle, generally grade 1-2", "value": "diarrhea, fatigue, nausea, anorexia, constipation, and dyspnea"}, {"measurement": "Objective response rate (CR+PR)", "setting": "advanced NSCLC; ALK+ patients, 4/8", "value": 50, "unit": "%"}, {"measurement": "Disease control rate", "setting": "advanced NSCLC; ALK+ patients, 7/8", "value": 88, "unit": "%"}, {"measurement": "Patients with prolonged stable disease (≧16 weeks)", "setting": "advanced NSCLC; [4]", "value": "seven"}, {"measurement": "Response in cohort C", "setting": "advanced NSCLC; [4]", "value": "durable partial response (PR)"}, {"measurement": "ALK+ patients with tumor shrinkage in target lesions", "setting": "advanced NSCLC; eight ALK+ patients of cohorts C and D (six of eight)", "value": 75, "unit": "%"}, {"measurement": "Tolerability", "setting": "advanced NSCLC; single agent 200 mg/m^2 once weekly, without severe liver, ocular, cardiovascular or renal toxicity", "value": "well-tolerated"}, {"measurement": "Angiogenesis compared to vehicle", "setting": "angiogenesis", "value": "reduced angiogenesis"}, {"measurement": "Enhanced cell death", "setting": "H2009 cells; [5]", "value": 1.5, "unit": "fold"}, {"measurement": "Increased cell death", "setting": "H2009 cells; [6]", "value": 2.3, "unit": "fold"}, {"measurement": "Fold increase in cytotoxicity", "setting": "H2009 cells; [7]", "value": 1.5, "unit": "fold"}, {"measurement": "Enhanced cell death", "setting": "H2030 cells; [5]", "value": 2.4, "unit": "fold"}, {"measurement": "Fold increase in cytotoxicity", "setting": "H2030 cells; [7]", "value": 3.4, "unit": "fold"}, {"measurement": "Increase in cytotoxicity", "setting": "A549 cells; [5]", "value": "marginal increase in cytotoxicity"}, {"measurement": "Increased cell death", "setting": "A549 cells; [6]", "value": 1.4, "unit": "fold"}, {"measurement": "Increase in cytotoxicity", "setting": "H358 cells; [5]", "value": "marginal increase in cytotoxicity"}, {"measurement": "Benefit of combination", "setting": "H358 cells; [6]", "value": "no benefit"}, {"measurement": "Fold increase in cytotoxicity", "setting": "H358 cells; [7]", "value": 1.4, "unit": "fold"}, {"measurement": "NSCLC patients with durable SD, with tumor shrinkage", "setting": "solid tumors; 6 months of treatment", "value": 2, "unit": "patients"}, {"measurement": "DLTs (elevated transaminases)", "setting": "solid tumors; in the 10 and 144 mg/m^2 cohorts", "value": "Two"}, {"measurement": "Volume of distribution", "setting": "solid tumors; patients", "value": "greater than total body water"}, {"measurement": "PK linearity", "setting": "solid tumors; patients, doses from 2-144 mg/m^2", "value": "linear PK"}, {"measurement": "Accumulation in plasma", "setting": "solid tumors; patients, twice-weekly dosing", "value": "no accumulation in plasma"}, {"measurement": "Tolerability", "setting": "solid tumors; twice-weekly administration", "value": "absence of severe liver, ocular, cardiac and renal toxicity; also recorded: well-tolerated"}, {"measurement": "Response by RECIST in a patient with metastatic melanoma", "setting": "solid tumors; twice-weekly dosing", "value": "confirmed durable PR"}, {"measurement": "AEs reported in ≧20% of patients", "setting": "solid tumors; twice-weekly, majority mild to moderate", "value": "fatigue, diarrhea, nausea, anemia, abdominal pain, constipation, anorexia, vomiting, and headache"}, {"measurement": "half-life", "setting": "[3]", "value": "600 to 840", "unit": "min"}]}
